Laboratory results as given in patent US12421276B2 (priority 2016, dated 2025).
“And” between values parts separate entries of the source, which are not always exact repeats. Identical values can stand only once. Like-named read-outs stand apart in the source and are kept apart here.

Legend:
[1] = assay type: in vivo, rat
Procedure, shortened: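 Male SD rats (n=4/group) dosed PO at 13.2 or 14.2 mg/kg (10 mL/kg) and housed in metabolic cages with daily urine collection. EDTA blood sampled predose to 24 h post-dose, centrifuged at 4 °C to plasma, analysed by LC-MS.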

[2] = Metabolic stability in simulated intestinal fluid (SIF), pH 6.8, with or without pancreatin; assay type: in vitro ADME; details: 5 μM, 37° C.
Procedure, shortened: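 Compounds at 5 μM incubated at 37 °C in freshly made SIF pH 6.8 (NaOH/NaH2PO4/NaCl), with or without 1% pancreatin. Remaining parent measured by LC/MS/MS against 0-min control; t½ derived from elimination rate constant (−slope) of semi-log % remaining vs time.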

Caco-2 cells = assay: Caco-2 permeability study with or without P-gp inhibitor GF120918; details: for Caco-2 Cells Permeability Recovery Rate: 1 hr, pH 7.4
Procedure: Buffer=HBSS, pH 7.4 with 5 mM HEPES
Caco-2 cell plates were obtained commercially and were maintained for 21 days at 37° C. with 5% CO2. Cells were washed with Hank's Balanced Salt Solution (HBSS) 30 min before starting the experiment. Test compound solutions were prepared by diluting from DMSO stock into HBSS buffer in the presence or absence of 10 μM of P-gp inhibitor GF120918. The final DMSO concentration is 0.2%. Prior to each experiment, cell monolayer integrity was verified by transendothelial electrical resistance (TEER). Transport experiment was initiated by adding test compounds to the apical (75 μL) side. Transport plates were incubated at 37° C. in a humidified incubator with 5% CO2. Samples were taken from the donor and acceptor compartments after 1 hr and analyzed by liquid chromatography with tandem mass spectrometry (LC/MS/MS).
Apparent permeability (Papp) values were calculated using the following equation: Papp=(dQ/dt)/A/C0
where dQ/dt is the initial rate of amount of test compound transported across cell monolayer, A is the surface area of the filter membrane, and C0 is the initial concentration of the test compound. C0 is calculated for each condition using a 4-point calibration curve.
Absorption quotient between the two assay conditions was calculated by the following equation:
Absorption quotient (AQ)=(Papp, A-B with inhibitor−Papp, A-B without inhibitor)/Papp, A-B with inhibitor where Papp, A-B with inhibitor and Papp, A-B without inhibitor represent the apparent permeability of test compound from the apical to basal side of the cellular monolayer in the presence and absence of 10 μM P-gp inhibitor GF120918, respectively.
All samples were analyzed on LC/MS/MS using an AB Sciex API 4000 instrument, coupled to a Shimadzu LC-20AD LC Pump system. Analytical samples were separated using a Waters Atlantis T3 dC18 reverse phase HPLC column (10 mm×2.1 mm) at a flow rate of 0.5 mL/min. The mobile phase consisted of 0.1% formic acid in water (solvent A) and 0.1% formic acid in acetonitrile (solvent B).

[3] = Plasma stability study, rat plasma; assay type: in vitro ADME; details: Rat plasma, 1 μM, 37° C.
Procedure, shortened: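 Compounds (1 μM, from 0.3 mM DMSO stock) incubated at 37° C in K2 EDTA plasma, quenched at time points with acetonitrile/methanol/formic acid plus internal standard, and analysed by LC/MS/MS. Disappearance measured relative to 0-min control; t½ derived from elimination rate constant of semi-log % remaining versus time regression.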

[4] = Rat, PO, 10 mg/kg equiv., n = 4, analyte: Parent (BASE STRUCTURE)
[5] = rat, dosed as prodrug, 10 mg/kg equivalent of Base Structure, analyte Parent (Base Structure), Average
[6] = rat, dosed as prodrug, 10 mg/kg equivalent of Base Structure, analyte Parent (Base Structure), Combined (average ± std. dev.)
[7] = rat, dosed as prodrug, 10 mg/kg equivalent of Base Structure, analyte Parent (Base Structure), individual animals
[8] = rat, dosed as prodrug, 10 mg/kg equivalent of Base Structure, analyte Parent (Base Structure), individual animals, 10 mg/kg
[9] = rat, dosed as prodrug, 10 mg/kg equivalent of Base Structure, analyte Prodrug, Average
[10] = rat, dosed as prodrug, 10 mg/kg equivalent of Base Structure, analyte Prodrug, Combined (average ± std. dev.)
[11] = rat, dosed as prodrug, 10 mg/kg equivalent of Base Structure, analyte Prodrug, individual animals

CCCCCC(=O)NC(Cc1ccc(OC(=O)N2CCN(C)CC2)cc1)C(=O)NC(C(=O)NCCCCCC(N)=O)C(C)CC (stereo not drawn) [Compound A20]
AUC0-24 (ng · h/mL) [1, 4]: 0.8 ± 1^ ng · h/mL | AUC0-inf [1, 4]: 1.61 ng·h/mL | Cmax [1, 4]: 1.7 ± 1.3 ng/mL | Tmax (h) [1, 4]: 0.3 ± 0^ h | half-life [1, 4]: 10.2 min | Tmax ([1]; Rat, PO, 10 mg/kg equiv., n = 4, analyte: Prodrug): 0 min | AUC 0-inf_obs [1, 5]: 1.611 ng·h/mL | AUC 0-t [1, 5]: 0.8309 ng·h/mL | AUMC 0-inf_obs [1, 5]: 0.6699 ng/ml * h^2 | Cl/F_obs [1, 5]: 6.207 (mg/kg)/(ng/ml)/h | Cmax [1, 5]: 1.7125 ng/mL | Lambda_z [1, 5]: 4.022 h⁻¹ | MRT 0-inf_obs [1, 5]: 24.95 min | Tlag [1, 5]: 0 h | Tmax [1, 5]: 15 min | Vz/F_obs [1, 5]: 1.543 (mg/kg)/(ng/ml) | t1/2 [1, 5]: 10.34 min | AUC 0-inf_obs [1, 6]: 1.611 ng·h/mL | AUC 0-t [1, 6]: 0.8 ± 1 ng·h/mL | AUMC 0-inf_obs [1, 6]: 0.6699 ng/ml * h^2 | Cl/F_obs [1, 6]: 6.207 (mg/kg)/(ng/ml)/h | Cmax [1, 6]: 1.7 ± 1.3 ng/mL | Lambda_z [1, 6]: 4.022 h⁻¹ | MRT 0-inf_obs [1, 6]: 24.95 min | Tlag [1, 6]: 0 ± 0 h | Tmax [1, 6]: 18 ± 0 min | Vz/F_obs [1, 6]: 1.543 (mg/kg)/(ng/ml) | t1/2 [1, 6]: 10.34 min | AUC 0-inf_obs [1, 7]: 1.611 ng·h/mL | AUMC 0-inf_obs [1, 7]: 0.6699 ng/ml * h^2 | Cl/F_obs [1, 7]: 6.207 (mg/kg)/(ng/ml)/h | Lambda_z [1, 7]: 4.022 h⁻¹ | MRT 0-inf_obs [1, 7]: 24.95 min | Tlag [1, 7]: 0 h | Tmax [1, 7]: 15 min | Vz/F_obs [1, 7]: 1.543 (mg/kg)/(ng/ml) | t1/2 [1, 7]: 10.34 min | AUC 0-t [1, 8]: 0.08927 ng·h/mL and 1.5726 ng·h/mL | Cmax [1, 8]: 0.765 ng/mL and 2.66 ng/mL | AUMC 0-inf_obs [1, 9]: 0 ng/ml * h^2 | Cl/F_obs [1, 9]: 0 (mg/kg)/(ng/ml)/h | Lambda_z [1, 9]: 0 h⁻¹ | Tlag [1, 9]: 0 h | Tmax [1, 9]: 0 min | Vz/F_obs [1, 9]: 0 (mg/kg)/(ng/ml) | AUMC 0-inf_obs [1, 10]: 0 ng/ml * h^2 | Cl/F_obs [1, 10]: 0 (mg/kg)/(ng/ml)/h | Lambda_z [1, 10]: 0 h⁻¹ | Tlag [1, 10]: 0 h | Tmax [1, 10]: 0 min | Vz/F_obs [1, 10]: 0 (mg/kg)/(ng/ml) | AUMC 0-inf_obs [1, 11]: 0 ng/ml * h^2 | Cl/F_obs [1, 11]: 0 (mg/kg)/(ng/ml)/h | Lambda_z [1, 11]: 0 h⁻¹ | Tlag [1, 11]: 0 h | Tmax [1, 11]: 0 min | Vz/F_obs [1, 11]: 0 (mg/kg)/(ng/ml) | SIF Stability (pH 6.8) Half-Life (min) ([2]; +Pancreatin (1%)): 86.6 min | SIF Stability (pH 6.8) 0 min ([2]; +Pancreatin (1%)): 100% | SIF Stability (pH 6.8) 60 min ([2]; +Pancreatin (1%)): 62% | SIF Stability (pH 6.8) 120 min ([2]; +Pancreatin (1%)): 54% | SIF Stability (pH 6.8) 240 min ([2]; +Pancreatin (1%)): 61% | SIF Stability (pH 6.8) Half-Life (min) ([2]; −Pancreatin): 95.4 min | SIF Stability (pH 6.8) 0 min ([2]; −Pancreatin): 100% | SIF Stability (pH 6.8) 60 min ([2]; −Pancreatin): 65% | SIF Stability (pH 6.8) 120 min ([2]; −Pancreatin): 57% | SIF Stability (pH 6.8) 240 min ([2]; −Pancreatin): 51% | Abs. Quotient (Caco-2 cells; (Papp A-B with inhibitor − without inhibitor)/Papp A-B with inhibitor): 0.88 | Caco-2 Cells Permeability Recovery Rate (Caco-2 cells; +GF120918 (10 μM), 10 μM compound): 90% | Caco-2 Cells Permeability Recovery Rate (Caco-2 cells; −GF120918, 10 μM compound): 71% | Plasma Stability Half-Life [3]: 157.0 min | Plasma Stability (% Parent Remaining) 0 min ([3]; 0 min): 100% | Plasma Stability (% Parent Remaining) 60 min ([3]; 60 min): 73% | Plasma Stability (% Parent Remaining) 120 min ([3]; 120 min): 56% | Plasma Stability (% Parent Remaining) 240 min ([3]; 240 min): 34%
